Assay [1] concerns MCF7. The assay can be described thus: Growth inhibition of human MCF7 cells after 48 hrs by SRB assay. Format: functional. Conditions: MCF7, 48 h.
Assay [2] in a line: Growth inhibition of human LOXIMVI cells after 48 hrs by SRB assay. The assay is classed as functional. As to conditions: LOX IMVI. Background: In SRB staining, fixed cells bind dye roughly in proportion to their protein.
The subject of assay [3] is M14. Briefly: Growth inhibition of human M14 cells after 48 hrs by SRB assay. The assay is classed as functional. As to conditions: M14, 48 h.
Assay [4] has as its system SK-MEL-5. Briefly: Growth inhibition of human SK-MEL-5 cells after 48 hrs by SRB assay. The assay is classed as functional. Conditions: SK-MEL-5, 48 h.
The nature of assay [5]: Growth inhibition of human UACC62 cells after 48 hrs by SRB assay. Format: functional. Conditions: UACC-62, 48 h.
The subject of assay [6] is MCF7. The assay can be described thus: Cell cycle arrest in human MCF7 cells assessed as accumulation at G2/M phase at 4 uM after 24 hrs by propidium iodide staining-based flow cytometry (reference value: 15.79%). The assay is classed as functional.
Assay [7] deals with MCF7. The assay can be described thus: Induction of cell cycle arrestin human MCF7 cells assessed as downregulation of E2F-1 protein expression at 4 uM by Western blot analysis. Format: functional, cell-based.
Assay [8] relates to MCF7. The assay can be described thus: Induction of apoptosis in human MCF7 cells assessed as increase in TNFR1 protein level at 4 uM by Western blot analysis relative to control. The assay is classed as functional, cell-based. For orientation: In western blotting, separated proteins are transferred to a membrane and probed.
The test system of assay [9] is CCRF-CEM. The assay can be described thus: Growth inhibition of human CCRF-CEM cells after 48 hrs by SRB assay. The assay is classed as functional.
Assay [10] has as its system HL-60(TB). Briefly: Growth inhibition of human HL-60(TB) cells after 48 hrs by SRB assay. The assay is classed as functional. As to conditions: HL-60, 48 h.
For assay [11], the system named is A549. Briefly: Growth inhibition of human A549 cells after 48 hrs by SRB assay. The assay is classed as functional. As to conditions: A549, 48 h.
Assay [12] relates to NCI-H23. Briefly: Growth inhibition of human NCI-H23 cells after 48 hrs by SRB assay. Format: functional. As to conditions: NCI-H23, 48 h.
In assay [13] the test system is COLO 205. The assay can be described thus: Growth inhibition of human COLO205 cells after 48 hrs by SRB assay. The assay is classed as functional. As to conditions: COLO 205, 48 h.
Assay [14] deals with SF-268. Briefly: Growth inhibition of human SF268 cells after 48 hrs by SRB assay. The assay is classed as functional. As to conditions: SF-268, 48 h.
A short description of assay [15]: Growth inhibition of human SF539 cells after 48 hrs by SRB assay. Format: functional. Conditions: SF-539, 48 h.
Assay [16] has as its system U-251. Briefly: Growth inhibition of human U251 cells after 48 hrs by SRB assay. Format: functional. Conditions: U-251, 48 h.
The nature of assay [17]: Growth inhibition of human OVCAR8 cells after 48 hrs by SRB assay. The assay is classed as functional. As to conditions: OVCAR-8, 48 h.
Assay [18] can be described thus: Growth inhibition of human NCI-ADR-RES cells after 48 hrs by SRB assay. Format: functional.
For assay [19], the system named is A498. Briefly: Growth inhibition of human A498 cells after 48 hrs by SRB assay. The assay is classed as functional. Conditions: A498, 48 h.

Activity calls are given as the source filed them. No cut-off for these calls is given here.

Take `COc1ccc(C(=O)/C=C/c2c(C(F)(F)F)nc3ccccn23)cc1OC`: the concentration for 50% growth inhibition (GI50) – broadly, the concentration giving 50% growth inhibition – in [1] was determined as 0.56 µM; in assay [2] it was 0.95 µM; in assay [3], 3.63 µM; in assay [4], 1.63 µM; in assay [5], 2.22 µM; in assay [9] it was 0.44 µM. The GI50 came to 1.52 µM in assay [10]; 2.8 µM in assay [11]; 2.37 µM in assay [12]; 1.92 µM in [13]; 1.57 µM in [14]; 1.65 µM in assay [15]. Also, the GI50 amounted to 1.1 µM in assay [16], 1.31 µM in assay [17], 1.57 µM in assay [18] and 2.45 µM in [19]. For the same molecule, in assay [6], the Activity came out at 0.31%. In addition, the inhibition result in assay [7] was “inactive”. Also, in assay [8], the result was Active.

Values taken from ChEMBL document CHEMBL3217491, “Design, synthesis and biological evaluation of imidazopyridine/pyrimidine-chalcone derivatives as potential anticancer agents” (2010).
